Experimental findings from patent US6011041A, “Use of anhydrovinblastine” (priority 1996, dated 2000) are described below.

Structures can show the parent of a compound that is named as a salt. Where two headings read alike, the source gives them in different places. Bounds are passed on as bounds.

The subject of series [1] is P388 murine leukemia cells. As to the kind of experiment: MTT dose response cytotoxicity, P388 (Table 1, FIG. 5). In kind it is cell-based. Particulars: Mus musculus, read-out: DRUG IC50. The procedure: (§1) Cytotoxicity experiments on AHVB were performed as direct comparisons with vincristine and navelbine in order to assess its inherent antineoplastic profile against a variety of tumour cell types relative to other relevant vinca alkaloids. The cytotoxicity of AHVB was investigated in vitro against a panel of tumour cell lines of varying lineage in order to determine the specificity of its antitumour activity with respect to cell type. The tumour lines studied were P388 lymphocytic leukemia (a murine lymphocytic leukemia), Noble (Nb) rat U17 lymphoma, MCF7 human breast carcinoma, H460 human non-small cell lung carcinoma, K562 human erythrokeukemia and LS180 human colon carcinoma based on established NCI in vitro new anticancer drug cytotoxicity screening protocols.
(§2) Standard dose response cytotoxicity assays (R. Mosmass, J. Immunol. Meth., 65:55-64, 1983) were utilized to determine the IC50 (drug concentration required to induce 50% inhibition of tumour cell growth) for vincristine, navelbine and AHVB. The indicated cell lines were obtained from either the ATCC or NCI tumor repository and were cultured in tissue culture media by standard techniques well known to those skilled in the art, prior to dilution to a defined cell concentration required for the studies in 96 well plates.
(§3) A wide range of drug concentrations were exposed to tumour cells growing at log phase in 96-well microtitre plates. Cell concentrations depended on the cell line as well as the length of time to be cultured. Typically, P388 cells were plated at a concentration of 30,000, 2,000 and 750 cells per well for studies lasting 1, 3 and 7 days, respectively MCF7 cells were plated at a concentration of 7,000 and 1,500 cells per well for studies lasting 3 and 7 days, respectively. H460 cells were plated at a concentration of 2,500 and 1,000 cells per well for studies lasting 3 and 7 days, respectively. K562 cells were plated at a concentration of 1,500 and 10,000 cells per well for studies lasting 1 and 3 days, respectively. LS180 cells were plated at a concentration of 5,000 and […] cells per well for studies lasting 3 and 7 days, respectively. After plating all cell lines were incubated (CO2 incubator at 37° C., 5% CO2) for 24 hours prior to addition of the cytotoxic agent (See Table 1). Subsequently the plates were incubated for the indicated time period. At specified times, cells were washed and subsequently exposed to the dye inclusion marker MTT (3-(4,5-dimethylthiazol-2-yl)-2,5diphenyl tetrazolium), which accumulated into viable cells. MTT was added to the cells at a final concentration of 50 μg per well. After a 4 hour incubation, the cells were washed free of media and unreacted MTT, prior to addition of DMSO which was required to solubilize the insoluble formazan precipitate that formed in viable cells. After the sample was mixed through repeated pipetting, the colored product was measured using a plate reader operating at 570 nm. The absorbance values obtained for cells cultured in the absence of drug was assumed to represent 100% viability. Experiments were repeated to substantiate any differences noted between […] and other vinca alkaloids.
A cytotoxicity curve was generated to estimate the IC50 of vincristine, navelbine and AHVB in the murine P388 cell line (see FIG. 5). In this study, P388 cells derived from an ascitic tumor grown in BDF1 were first separated from red cells employing Ficoll-Paque. Isolated while cells were washed twice then placed in serum containing tissue culture media (1×10^5 cells per ml of RPMI 1640 supplemented with L-glutamine, penicillin, streptomycin and 10% fetal bovine serum) and cultured for 2 hours. All non adherent cells were collected and that cell population was defined as P388 cells and used for cytotoxicity assays 24 hours later. Cytotoxicity assays were performed as described in the notes to Table 1. The drug concentrations used are indicated on the X-axis. […]

Series [2] concerns MCF7 human breast carcinoma. Briefly: MTT dose response cytotoxicity, MCF7 (Table 1). The format is cell-based. Particulars: read-out: DRUG IC50. The procedure:
as §1, §2, §3

In series [3] the test system is K562 human erythroleukemia. Briefly: MTT dose response cytotoxicity, K562 (Table 1). The format is cell-based. As to conditions: read-out: DRUG IC50. The procedure:
as §1, §2, §3

The test system of series [4] is LS180 human colon carcinoma. Briefly: MTT dose response cytotoxicity, LS180 (Table 1). Particulars: read-out: DRUG IC50. In kind it is cell-based. The procedure: as §1, §2, §3
The test system of the next series is healthy male Nb rats. Briefly: acute (14 day) single dose toxicity in healthy male Nb rats (Table 2). As to conditions: single i.p. injection. In kind it is in vivo, rat. Here is the method: (§4) Range-finding acute (14 day), single dose toxicity studies were performed in healthy male Nb rats in order to determine the maximum tolerated dose of vincristine sulfate, navelbine and AHVB when administered as a single, intraperitoneal injection in these rodents (see Table 2). To this end, healthy non-tumor bearing male Nb rats (weight range 333-399 grams) were divided in groups of 3 animals. Each group was used to test one drug at one dosage. The volumes within which the drugs were administered depended on the concentration of the drug solution (in saline) and the weight of the animals, and ranged from 0.1-1.0 ml. Saline was used as a control. The highest dose of each drug which allowed survival of all animals in a group (3 out of 3) was taken as the subacutely toxic dosage for the drug, i.e. 0.7 mg/kg for vincristine, 2.0 mg/kg for navelbine and 3.0 mg/kg for AHVB.
(§5) The health of the animals was assessed by daily weight measurements in addition to behavioral indications of stress. Animals continued to be monitored throughout the complete 14 day study period. Animals were euthanized in the event of signs of severe stress or weight loss in excess of 20%. All animals were necropsied at the end of the study period or at the time of premature euthanasia.

Assay in series [5]: as above
Particulars: rat, in vivo, ip; male Nb rats, single i.p. injection; read-out: subacutely toxic dosage (highest dose which allowed survival of all animals in a group, 3 out of 3). In kind it is in vivo, rat. The procedure:
as §4, §5

Series [6] relates to H460 human non-small cell lung carcinoma. As to the kind of experiment: MTT dose response cytotoxicity, H460 (Table 1). The format is cell-based. Particulars: read-out: DRUG IC50. The procedure:
as §1, §2, §3

Setting [7] is: 24 h, P388, exposure time 1 day.
The mark [8] stands for this setting: 72 h, P388, exposure time 3 days.
Where [9] appears, read: 168 h, P388, exposure time 7 days.
Setting [10] is: 72 h, MCF7, exposure time 3 days.
Setting [11] is: 168 h, MCF7, exposure time 7 days.
The mark [12] stands for this setting: 24 h, K562, exposure time 1 day.
Where [13] appears, read: 72 h, K562, exposure time 3 days.
Setting [14] is: 72 h, LS180, exposure time 3 days.
[15] abbreviates: 168 h, LS180, exposure time 7 days.
[16] abbreviates: NCI-H460, 72 h, H460, exposure time 3 days.
[17] abbreviates: NCI-H460, 168 h, H460, exposure time 7 days.

For `CC[C@]1(O)C[C@H]2CN(CCc3c([nH]c4ccccc34)[C@@](C(=O)OC)(c3cc4c(cc3OC)N(C=O)[C@H]3[C@@](O)(C(=O)OC)[C@H](OC(C)=O)[C@]5(CC)C=CCN6CC[C@]43[C@@H]65)C2)C1` [vincristine, Sulfate of 22-oxovincaleukoblastine], the IC50 is 11 ± 3.6 nM in series [1] (setting [7]); 1 ± 0.3 nM in series [1] (setting [8]); 2 nM in series [1] (setting [9]); greater than 2500 nM in series [2] (setting [10]); 2.6 ± 1.6 nM in series [2] (setting [11]); greater than 50 nM in series [3] (setting [12]). Also, the IC50 in series [3] (setting [13]) was 1.5 ± 0.4 nM; in series [4] (setting [14]), greater than 50 nM; in series [4] (setting [15]), 1.5 nM; in series [6] (setting [16]), 3.5 nM; in series [6] (setting [17]), 2.5 nM. Moreover, the “Mortality (surviving rats/injected rats)” value in the series with healthy male Nb rats (0.5 mg/kg) and in the series with healthy male Nb rats (0.7 mg/kg) was 3/3 throughout. Also, the MTD at 336 h in series [5] is 0.7 mg/kg.

Turning to `CCC1=CC2CN(CCc3c([nH]c4ccccc34)C(C(=O)OC)(c3cc4c(cc3OC)N(C)C3C(O)(C(=O)OC)C(OC(C)=O)C5(CC)C=CCN6CCC43C65)C2)C1` (stereo not shown) [AHVB, 3',4'-anhydrovinblastine], the IC50 was 140 ± 53 nM in series [1] (P388, 24 h); 15 ± 8.7 nM in series [1] (P388, 72 h); 20 nM in series [1] (P388, 168 h); greater than 2500 nM in series [2] (MCF7, 72 h); 31.3 ± 12.4 nM in series [2] (MCF7, 168 h); greater than 50 nM in series [3] (K562, 24 h). Besides, the IC50 was 18.8 ± 8.8 nM in series [3] (K562, 72 h); greater than 50 nM in series [4] (LS180, 72 h); 17.5 nM in series [4] (LS180, 168 h); 10 nM in series [6] (NCI-H460, 72 h); 5 nM in series [6] (NCI-H460, 168 h). Besides, the “Mortality (surviving rats/injected rats)” value in the series on healthy male Nb rats (3.0 mg/kg) is 3/3; in the series on healthy male Nb rats (4.4 mg/kg), 0/1; in the series on healthy male Nb rats (10.0 mg/kg) it was 0/3. Moreover, in series [5], the MTD at 336 h came out at 3 mg/kg.

With `CCC1=C[C@@H]2CN(C1)Cc1c([nH]c3ccccc13)[C@@](C(=O)OC)(c1cc3c(cc1OC)N(C)[C@H]1[C@@](O)(C(=O)OC)[C@H](OC(C)=O)[C@]4(CC)C=CCN5CC[C@]31[C@@H]54)C2` [navelbine, 3',4'-didehydro-4'-deoxy-C'-norvincaleukoblastine-di-L-tartrate], the IC50 is 20 ± 10 nM in series [1] (setting [7]); 0.7 ± 0.3 nM in series [1] (setting [8]); 2.5 nM in series [1] (setting [9]); greater than 2500 nM in series [2] (setting [10]); 2.6 ± 1.6 nM in series [2] (setting [11]); greater than 50 nM in series [3] (setting [12]). In addition, the IC50 in series [3] (setting [13]) is 2.5 ± 2.2 nM; in series [4] (setting [14]), greater than 50 nM; in series [4] (setting [15]) it was 0.5 nM; in series [6] (setting [16]) it was 0.3 nM; in series [6] (setting [17]), greater than 0.5 nM. Moreover, the “Mortality (surviving rats/injected rats)” value was 3/3 in the series on healthy male Nb rats (2.0 mg/kg) and 0/3 in the series with healthy male Nb rats (5.0 mg/kg). Further, the MTD at 336 h in series [5] worked out at 2 mg/kg.
